# Data taken from PMC12368060 (Communications Biology, 2025).
# Square brackets hold non-standard residues; d marks the D form. Peptide text beside a SMILES is read from it. * marks the point of attachment. FITC = O=C1OC2(c3ccc(O)cc3Oc3cc(O)ccc32)c2ccc(NC(=S)*)cc21; pS = N[C@@H](COP(=O)(O)O)C(=O)O; Ahx = NCCCCCC(=O)O
# Molecular target: GST-LC3B (Homo sapiens, UniProt Q9GZQ8)
# Assay: Surface plasmon resonance
# Format: binding
# Settings: read-out: kon (on-rate)
structure (smiles),measurement,value
CC[C@H](C)[C@H](NC(=O)[C@H](CCC(=O)O)NC(=O)[C@@H](NC(=O)[C@H](Cc1ccccc1)NC(=O)[C@H](CO)NC(=O)[C@H](CC(=O)O)NC(=O)[C@H](CCC(=O)O)NC(=O)[C@H](CO)NC(=O)[C@H](CO)NC(=O)CNC(=O)[C@H](CO)NC(=O)[C@H](CO)NC(=O)[C@H](CC(N)=O)NC(=O)CCCCCNC(=S)Nc1ccc2c(c1)C(=O)OC21c2ccc(O)cc2Oc2cc(O)ccc21)C(C)C)C(=O)N[C@@H](CCCNC(=N)N)C(=O)N[C@@H](CCSC)C(=O)N[C@@H](C)C(=O)N[C@@H](CCC(=O)O)C(=O)O [WT] ({FITC-Ahx}-NSSGSSEDSFVEIRMAE-OH),kon,550 M⁻¹ s⁻¹
CC[C@H](C)[C@H](NC(=O)[C@H](CCC(=O)O)NC(=O)[C@@H](NC(=O)[C@H](Cc1ccccc1)NC(=O)[C@H](COP(=O)(O)O)NC(=O)[C@H](CC(=O)O)NC(=O)[C@H](CCC(=O)O)NC(=O)[C@H](CO)NC(=O)[C@H](CO)NC(=O)CNC(=O)[C@H](CO)NC(=O)[C@H](CO)NC(=O)[C@H](CC(N)=O)NC(=O)CCCCCNC(=S)Nc1ccc2c(c1)C(=O)OC21c2ccc(O)cc2Oc2cc(O)ccc21)C(C)C)C(=O)N[C@@H](CCCNC(=N)N)C(=O)N[C@@H](CCSC)C(=O)N[C@@H](C)C(=O)N[C@@H](CCC(=O)O)C(=O)O [pS177] ({FITC-Ahx}-NSSGSSED[pS]FVEIRMAE-OH),kon,17800 M⁻¹ s⁻¹
